Results taken from US20040014721A1, “Method for using tethered bis(polyhydroxyphenyls) and O-alkyl derivatives thereof in treating inflammatory conditions of the central nervous system” (Oklahoma Medical Research Foundation, priority 2002, published 2004).
Read-outs that look alike come from different tables or passages of the source.

Assays:
[1] = system: TNFα-Stimulated NO2^− Production in EOC-20 Cells; assay: TNFα-stimulated nitrite (NO2−) production in EOC-20 microglial cells, Griess assay; type: cell-based, mouse
Procedure: Cells were cultured in 24 well plates until confluent then treated with test agent, which was dissolved at 100× final concentration in dimethylsulfoxide (DMSO), or with vehicle only. Thirty minutes after treatment with test agent, cells were treated with 10 ng/mL recombinant mouse TNFα (Pharmingen, San Diego, Calif. USA). […] Each compound was tested at 100 μM, 20 μM, 4 μM, 0.8 μM and 0 μM in the presence of TNFα. Four wells of cells were used for each concentration of test agent.
(§1) Lower IC50 values indicate improved efficacy. FIG. 2 illustrates the principle of the measurement using NDGA as an example test agent. In order to determine viability, cell culture medium was replaced with phenol-free DMEM (Gibco) containing 20 μL/mL of MTT viability reagent (Promega). […] Control cells were taken to indicate 100% viability and intermediate values of MTT reduction were scaled to percentage of control. For each compound, an LD50 value was determined by extrapolation through sublethal concentrations. This value represents the concentration that reduced the MTT viability parameter by 50%.

[2] = system: EOC-20 cells
Procedure: as §1

[3] = system: LnCAP Production of PSA; assay: LnCAP production of PSA (ELISA); type: cell-based; conditions: 24 h
Procedure: LnCAP prostate cancer cells were be cultured according to established methods (Horoszewicz et al., 1983). These cells product prostate-specific antigen (PSA), a serine protease that predicts metastatic potential ([…] et al., 2000). […] Each drug was tested in triplicate at each concentration. Medium was removed and tested for PSA concentration using a commercially available enzyme-linked immunosorbent assay (ELISA). Viability was determined in the adherent cells using the MTT assay.

[4] = Mus musculus, 24 h, Table III, 10 ng/mL TNFα, 24 hr, by interpolation, read-out: IC50
[5] = Table III, 10 ng/mL TNFα, 24 hr, by interpolation
[6] = Table III, MTT viability, by extrapolation through sublethal concentrations
[7] = Table III, 10 ng/mL TNFα, 24 hr, by interpolation, read-out: IC50
[8] = Mus musculus, Table III, 10 ng/mL TNFα, 24 hr, by interpolation, read-out: IC50
[9] = Mus musculus, Table V, read-out: IC50
[10] = Table V, * obtained by linear extrapolation from points ≦100 μM
[11] = Mus musculus, Table V, * obtained by linear extrapolation from points ≦100 μM, read-out: IC50

Compound: COc1ccc(-c2coc3cc(O)ccc3c2=O)cc1
- IC50 [1, 4]: 106 µM
- LD50 ([2]; mouse): 126 μm

Compound: O=C(O)CCCC[C@@H]1CCSS1 (racemic) [Lipoic acid]
- IC50 [1, 5]: Inactive

Compound: CC(C)(C)[N+]([O-])=Cc1ccccc1O [2-OH-PBN]
- IC50 [1, 5]: Inactive
- LD50 [2, 6]: nontoxic

Compound: O=c1c(O)c(-c2ccccc2)oc2cc(O)cc(O)c12 [3,5,7-trihydroxy-flavone (galangin), 3,5,7-trihydroxy-flavone]
- IC50 [1, 4]: 41 µM
- LD50 ([2]; mouse): 58 μm

Compound: CC(C)(C)[N+]([O-])=Cc1cccc(O)c1 [3-OH-PBN]
- IC50 [1, 5]: Inactive
- LD50 [2, 6]: nontoxic

Compound: O=c1c(O)c(-c2ccccc2)oc2ccccc12 [3-OH-flavone]
- IC50 [1, 7]: 70 µM
- LD50 [2]: 125 μm

Compound: CC(C)(C)[N+]([O-])=Cc1ccc(O)cc1 [4-OH-PBN]
- IC50 [1, 5]: Inactive
- LD50 [2, 6]: nontoxic

Compound: O=c1cc(-c2ccc(O)cc2)oc2cc(O)cc(O)c12 [4′,5,7-trihydroxy-flavone (apigenin), 4′,5,7-trihydroxy-flavone]
- IC50 [1, 4]: 55 µM
- LD50 [2, 6]: 87 μm

Compound: O=c1c(-c2ccc(O)cc2)coc2cc(O)cc(O)c12 [4′,5,7-trihydroxy-isoflavone (genistein), 4′,5,7-trihydroxy-isoflavone]
- IC50 [1, 4]: 46 µM
- LD50 [2, 6]: nontoxic

Compound: COc1cc(O)c2c(=O)c(-c3ccc(O)cc3)coc2c1 [4′,5-dihydroxy-7-methoxy-isoflavone]
- IC50 [1, 8]: 120 µM
- LD50 [2, 6]: nontoxic

Compound: COc1ccc(-c2coc3cc(O)cc(O)c3c2=O)cc1 [4′-methoxy-5,7-dihydroxyisoflavone]
- IC50 [1, 4]: 49 µM
- LD50 ([2]; mouse): 112 μm

Compound: O=c1cc(-c2ccccc2)oc2cccc(O)c12 [5-OH-flavone]
- IC50 [1, 7]: 34 µM
- LD50 [2]: 310 μm
- IC50 ([3]; extrapolated): 227 µM

Compound: O=c1cc(-c2ccccc2)oc2cc(O)ccc12 [7-OH-flavone, 7-OH-flavone]
- IC50 [1, 7]: 65 µM
- LD50 [2, 6]: 125 μm

Compound: COc1cccc2c1cc([N+](=O)[O-])c1c(C(=O)O)cc3c(c12)OCO3 [Aristolochic acid]
- IC50 ([1]; Mus musculus): 29 µM
- LD50 ([2]; Table V): 100 µM

Compound: c1ccc2c(c1)ccc1c3ccccc3ccc21 [Chrysene]
- IC50 [1, 5]: Inactive
- LD50 [2, 6]: nontoxic

Compound: O=c1cc(-c2ccccc2)oc2cc(O)cc(O)c12 [Chrysin, 5,7-dihydroxy-flavone]
- IC50 [1, 4]: 63 µM
- LD50 [2, 6]: 85 μm
- IC50 ([3]; Homo sapiens, LNCaP): 91 µM

Compound: O=c1c(-c2ccc(O)cc2)coc2cc(O)ccc12 [Daidzein, 4,7-dihydroxyisoflavone]
- IC50 [1, 4]: 114 µM
- IC50 ([3]; Homo sapiens, LNCaP, extrapolated): 130 µM

Compound: O=c1oc2c(O)c(O)cc3c(=O)oc4c(O)c(O)cc1c4c23 [Ellagic acid]
- IC50 [1, 4]: 110 µM
- LD50 [2]: nontoxic

Compound: Oc1cc(O)c2c(c1)O[C@H](c1ccc(O)c(O)c1)[C@H](O)C2 [Epicatechin]
- IC50 Values (ELISA), PSA production [3]: Inactive

Compound: O=c1cc(-c2ccccc2)oc2ccccc12 [Flavone]
- IC50 [1, 4]: 60 µM
- LD50 [2, 6]: 7 μm

Compound: CC(C)Cc1ccc(C(C)C(=O)O)cc1 (stereo not drawn) [Ibuprofen]
- activity against TNFα-stimulated nitrite production [1]: weak activity
- IC50 [1, 5]: Inactive
- IC50 ([1]; Table V): Inactive

Compound: COc1ccc2c(c1)c(CC(=O)O)c(C)n2C(=O)c1ccc(Cl)cc1 [Indomethacin]
- activity against TNFα-stimulated nitrite production [1]: weak activity
- IC50 [1, 4]: 61 µM
- IC50 [1, 9]: 61 µM
- LD50 [2, 6]: 124 μm
- LD50 [2, 10]: 124* μM

Compound: O=c1c(O)c(-c2ccc(O)cc2)oc2cc(O)cc(O)c12 [Kaempherol, 3,4′,5,7-tetrahydroxy-flavone]
- IC50 [1, 4]: 47 µM
- LD50 ([2]; mouse): 70 μm
- IC50 ([3]; Homo sapiens, LNCaP): 68 µM

Compound: CC(C)c1ccc2c(c1)c(SC(C)(C)C)c(CC(C)(C)C(=O)O)n2Cc1ccc(Cl)cc1 [MK-886]
- IC50 ([1]; Table V, read-out: IC50): 41 µM
- LD50 [2]: 40 µM

Compound: CN(C)c1ccc(O)c2c1C[C@H]1C[C@H]3[C@H](N(C)C)C(O)=C(C(N)=O)C(=O)[C@@]3(O)C(O)=C1C2=O [Minocycline]
- IC50 [1, 4]: 49 µM

Compound: C[C@H](Cc1ccc(O)c(O)c1)[C@@H](C)Cc1ccc(O)c(O)c1 [NDGA (natural), nordihydroguaiaretic acid]
- IC50 [1, 4]: 3.1 µM
- IC50 [1, 9]: 3 µM

Compound: C[C@H](Cc1ccc(O)c(O)c1)[C@@H](C)Cc1ccc(O)c(O)c1 [NDGA (synthetic), nordihydroguaiaretic acid]
- IC50 [1, 7]: 4 µM
- IC50 ([1]; Table V, read-out: IC50): 4 µM

Compound: CC(=O)Oc1ccc(CC(C)C(C)Cc2ccc(OC(C)=O)c(OC(C)=O)c2)cc1OC(C)=O (stereo not drawn) [NDGA tetraacetyl ester]
- IC50 ([1]; Table V, read-out: IC50): 5 µM
- LD50 ([2]; Table V): Nontoxic

Compound: CS(=O)(=O)Nc1ccc([N+](=O)[O-])cc1OC1CCCCC1 [NS-398]
- activity against TNFα-stimulated nitrite production [1]: essentially inactive
- IC50 [1, 11]: 108 µM
- LD50 [2, 10]: 129* μM

Compound: CS(=O)(=O)Nc1ccc([N+](=O)[O-])cc1Oc1ccccc1 [Nimesulide]
- IC50 [1, 9]: 20 µM

Compound: CN(C)[C@@H]1C(O)=C(C(N)=O)C(=O)[C@@]2(O)C(O)=C3C(=O)c4c(O)cccc4[C@@](C)(O)[C@H]3[C@H](O)[C@@H]12 [Oxyletracycline]
- IC50 [1, 7]: 64 µM

Compound: COc1ccc(/C=C/c2cc(O)cc(O[C@@H]3O[C@H](CO)[C@@H](O)[C@H](O)[C@H]3O)c2)cc1O [Rhapontin (natural, rhubarb), Rhapontin]
- IC50 [1, 5]: Inactive
- LD50 [2]: nontoxic

Compound: O=C(/C=C/c1ccc(O)c(O)c1)O[C@H](Cc1ccc(O)c(O)c1)C(=O)O [Rosemarinic acid]
- IC50 [1, 4]: 139 µM
- LD50 [2]: nontoxic

Compound: C[S+]([O-])c1ccc(-c2nc(-c3ccncc3)c(-c3ccc(F)cc3)[nH]2)cc1 (stereo not drawn) [SB203580]
- LD50 [2, 6]: 100 μm

Compound: c1cc2c(cc1[C@H]1OC[C@H]3[C@@H]1CO[C@@H]3c1ccc3c(c1)OCO3)OCO2 [Sesamin, sesamin]
- IC50 [1, 9]: 42 µM
- LD50 ([2]; Table V): Nontoxic

Compound: CCOc1ccc(CC(C)C(C)Cc2ccc(OCC)c(OCC)c2)cc1OCC (stereo not drawn) [Tetra-ethyl ether of NDGA (synthetic), Tetra-ethyl ether of NDGA]
- IC50 ([1]; read-out: IC50): 0.8 µM

Compound: CN(C)[C@@H]1C(O)=C(C(N)=O)C(=O)[C@@]2(O)C(O)=C3C(=O)c4c(O)cccc4[C@@](C)(O)[C@H]3C[C@@H]12 [Tetracycline]
- IC50 [1, 8]: 85 µM
- LD50 [2]: nontoxic

Compound: C(=C\c1ccccc1)/c1ccccc1 [Trans-stilbene, Trans- stilbene]
- IC50 [1, 5]: Inactive
- LD50 [2]: nontoxic

Compound: N#CC(C#N)=C(N)/C(C#N)=C/c1cc(O)c(O)c(O)c1 [Tyrphostin 51]
- IC50 [1, 5]: Inactive
- LD50 [2, 6]: nontoxic

Compound: N#CC(C#N)=Cc1ccc([N+](=O)[O-])c(O)c1 [Tyrphostin AG126]
- IC50 [1, 7]: 18 µM
- LD50 [2, 6]: 150 μm

Compound: CC(c1cc2ccccc2s1)N(O)C(N)=O (stereo not drawn) [Zileuton]
- activity against TNFα-stimulated nitrite production [1]: approximately as effective as minocycline
- IC50 [1, 11]: 105 µM
- LD50 [2]: Nontoxic

Compound: Cc1c(C)c2c(c(C)c1O)CC[C@@](C)(CCC[C@H](C)CCC[C@H](C)CCCC(C)C)O2 [alpha tocopherol]
- IC50 [1, 5]: Inactive
- LD50 [2]: nontoxic

Compound: O=C(/C=C/c1ccc(O)c(O)c1)c1ccc(O)cc1O [butein (2′,4′,3,4-tetrahydroxychalcone), 2′,4′,3,4-tetrahydroxychalcone]
- IC50 [1, 4]: 5.1 µM
- LD50 ([2]; mouse): 77 μm

Compound: COC1=C(OC)C(=O)C(C/C=C(\C)CC/C=C(\C)CC/C=C(\C)CC/C=C(\C)CC/C=C(\C)CC/C=C(\C)CC/C=C(\C)CC/C=C(\C)CC/C=C(\C)CCC=C(C)C)=C(C)C1=O [coenzyme O]
- IC50 [1, 5]: Inactive
- LD50 [2]: nontoxic

Compound: COc1cc(/C=C/C(=O)CC(=O)/C=C/c2ccc(OC(C)=O)c(OC)c2)ccc1OC(C)=O [curcumin diacetyl ester]
- IC50 ([1]; Table V, read-out: IC50): 14 µM
- LD50 ([2]; Table V): Nontoxic

Compound: C[C@@H]1C(=O)O[C@H]2C[C@@]34[C@H]5C[C@@H](C(C)(C)C)[C@]36[C@@H](OC(=O)[C@@H]6O)O[C@@]4(C(=O)O5)[C@]21O [gingkolide A]
- IC50 [1, 5]: Inactive
- LD50 [2, 6]: nontoxic

Compound: C[C@@H]1C(=O)O[C@H]2[C@@H](O)[C@@]34[C@H]5C[C@@H](C(C)(C)C)[C@]36[C@@H](OC(=O)[C@@H]6O)O[C@@]4(C(=O)O5)[C@@]12O [gingkolide B]
- IC50 [1, 5]: Inactive
- LD50 [2, 6]: nontoxic

Compound: CC(C)(C)/[N+]([O-])=C/c1ccccc1 [phenyl N tert-butyl-nitrone (PBN), phenyl N tert-butyl-nitrone]
- IC50 [1, 7]: 100 µM
- LD50 [2, 6]: nontoxic

Compound: S=C(S)N1CCCC1 [pyrollidine dithiocarbamate (PDTC), pyrollidine dithiocarbamate]
- IC50 [1, 7]: 51 µM
- LD50 [2, 6]: 90 μm

Compound: Oc1ccc(C#CC/C=C/c2ccc(O)c(O)c2)cc1O [rooperol]
- IC50 ([1]; read-out: IC50): 25 µM
- cytotoxicity [2]: nontoxic
